Laboratory results published in US20250262201A1, “COMPOUNDS AND METHODS USEFUL FOR STABILIZING PHENYLALANINE HYDROXYLASE MUTATIONS” (Agios Pharmaceuticals, Inc., priority 2022, published 2025).
Like-named read-outs stand apart in the source and are kept apart here.

Biological target: T1, human PAH with the R408W mutation (Homo sapiens, UniProt P00439, R408W)
T1 construct: expressed in transfected cells
T1 sequence (P00439 1-452 R408W): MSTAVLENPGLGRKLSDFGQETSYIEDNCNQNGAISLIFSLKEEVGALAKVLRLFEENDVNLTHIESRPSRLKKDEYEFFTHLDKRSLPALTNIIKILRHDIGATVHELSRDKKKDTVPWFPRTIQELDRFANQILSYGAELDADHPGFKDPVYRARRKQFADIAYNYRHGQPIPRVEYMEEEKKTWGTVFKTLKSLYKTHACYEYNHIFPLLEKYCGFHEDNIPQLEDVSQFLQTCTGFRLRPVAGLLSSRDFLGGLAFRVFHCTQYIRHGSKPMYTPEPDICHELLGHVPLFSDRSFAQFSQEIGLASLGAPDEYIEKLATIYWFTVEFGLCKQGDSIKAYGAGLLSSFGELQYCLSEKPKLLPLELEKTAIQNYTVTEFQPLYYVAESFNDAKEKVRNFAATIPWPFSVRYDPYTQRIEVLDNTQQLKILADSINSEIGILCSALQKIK
Assay: Cell Based Phenylalanine Flux Assay
Set-up: scale not given here
Conditions: A375 R408W cells, 24 hrs with compound, then 20 μM sepiapterin and 800 μM 13C9,15N-Phenylalanine for 4 hours, 13C-Tyrosine by LC-MS, average where tested multiple times

SMILES	AC50 (read-out: AC50) [µM]	AC50
CC(C)(O)c1cc(C(=O)N2CCc3[nH]cnc3[C@H]2c2cc3ccccc3cn2)no1	1 to 5	–
CC(C)(O)c1cc(C(=O)N2CCc3[nH]cnc3[C@H]2c2cc3ccccc3cn2)on1	1 to 5	–
O=C(c1nnc(CCN2CC(F)C2)o1)N1CCc2[nH]cnc2[C@H]1c1cc2ccccc2cn1	1 to 5	–
CN1CCN(c2nnc(C(=O)N3CCc4[nH]cnc4[C@H]3c3cc4ccccc4cn3)o2)CC1	1 to 5	–
O=C(CCc1cnco1)N1CCc2[nH]cnc2C1c1cn2ccccc2n1 (stereo not drawn)	1 to 5	–
Cc1nnc(CCC(=O)N2CCc3[nH]cnc3C2c2cn3ccccc3n2)o1 (stereo not drawn)	> 5	–
O=C(Cn1cncn1)N1CCc2[nH]cnc2C1c1cn2ccccc2n1 (stereo not drawn)	> 5	–
O=C(Cc1cscn1)N1CCc2[nH]cnc2C1c1cn2ccccc2n1 (stereo not drawn)	1 to 5	–
O=C(Cc1cnco1)N1CCc2[nH]cnc2C1c1cn2ccccc2n1 (stereo not drawn)	> 5	–
O=C(Cc1cncs1)N1CCc2[nH]cnc2C1c1cn2ccccc2n1 (stereo not drawn)	> 5	–
O=C(CCc1ncco1)N1CCc2[nH]cnc2C1c1cn2ccccc2n1 (stereo not drawn)	1 to 5	–
O=C(CCc1ccccc1)N1CCc2[nH]cnc2C1c1cn2ccccc2n1 (stereo not drawn) [listing 1 of 2 here]	1 to 5	–
O=C(Cc1ccccn1)N1CCc2[nH]cnc2C1c1cn2ccccc2n1 (stereo not drawn)	> 5	–
Cc1nnc(CCC(=O)N2CCc3[nH]cnc3C2c2cn3ccccc3n2)s1 (stereo not drawn)	> 5	–
O=C(Cc1nncs1)N1CCc2[nH]cnc2C1c1cn2ccccc2n1 (stereo not drawn)	> 5	–
O=C(CCc1cncs1)N1CCc2[nH]cnc2C1c1cn2ccccc2n1 (stereo not drawn)	> 5	–
O=C(Cc1cnn2ccccc12)N1CCc2[nH]cnc2C1c1cn2ccccc2n1 (stereo not drawn)	> 5	–
Cc1ncoc1CC(=O)N1CCc2[nH]cnc2C1c1cn2ccccc2n1 (stereo not drawn)	> 5	–
O=C(c1cnc(C2(O)CCC2)s1)N1CCc2[nH]cnc2C1c1cn2ccccc2n1 (stereo not drawn)	1 to 5	–
CN1CCN(c2nnc(C(=O)N3CCc4[nH]cnc4C3c3cn4ccccc4n3)o2)CC1 (stereo not drawn)	> 5	–
O=C(Cc1coc(C(F)F)n1)N1CCc2nc[nH]c2C1c1cn2ccccc2n1 (stereo not drawn)	1 to 5	–
CC(C)(F)c1ncc(C(=O)N2CCc3[nH]cnc3C2c2cn3ccccc3n2)o1 (stereo not drawn)	1 to 5	–
Cn1cc(-c2nnc(C(=O)N3CCc4[nH]cnc4C3c3cn4ccccc4n3)o2)cn1 (stereo not drawn)	1 to 5	–

SMILES	AC50 (read-out: AC50) [µM]	AC50
CC(C)(O)c1nc(C2CC2)c(C(=O)N2CCc3[nH]cnc3C2c2cn3ccccc3n2)o1 (stereo not drawn)	1 to 5	–
O=C(c1oc(-c2ccccn2)nc1C1CC1)N1CCCc2[nH]cnc2C1c1cn2ccccc2n1 (stereo not drawn)	> 5	–
O=C(c1oc(-c2ccccn2)nc1C1CC1)N1CCc2nc[nH]c2C1c1cn2ccccc2n1 (stereo not drawn)	1 to 5	–
CC(C)(O)c1nc(C(F)(F)F)c(C(=O)N2CCc3[nH]cnc3C2c2cn3ccccc3n2)o1 (stereo not drawn)	1 to 5	–
O=C(c1ocnc1-c1ccccn1)N1CCc2[nH]cnc2C1c1cn2ccccc2n1 (stereo not drawn)	1 to 5	–
Cc1nc(-c2ccccn2)oc1C(=O)N1CCc2[nH]cnc2C1c1cn2ccccc2n1 (stereo not drawn) [listing 1 of 2 here]	1 to 5	–
O=C(c1nnc(-c2ccccn2)o1)N1CCc2[nH]cnc2C1c1cn2ccccc2n1 (stereo not drawn)	1 to 5	–
O=C(c1nnc(-c2ccccn2)o1)N1CCCc2[nH]cnc2C1c1cn2ccccc2n1 (stereo not drawn)	> 5	–
CC(C)(O)c1ncc(C(=O)N2CCc3[nH]cnc3C2c2cn3ccccc3n2)s1 (stereo not drawn)	1 to 5	–
O=C(c1cnc(C(F)F)s1)N1CCc2[nH]cnc2C1c1cn2ccccc2n1 (stereo not drawn)	1 to 5	–
O=C(c1nnc(C2CC2)o1)N1CCc2[nH]cnc2C1c1cn2ccccc2n1 (stereo not drawn)	1 to 5	–
O=C(c1cnc(C2CC2)o1)N1CCc2[nH]cnc2C1c1cn2ccccc2n1 (stereo not drawn)	1 to 5	–
O=C(c1cnc(C2CC2)s1)N1CCc2[nH]cnc2C1c1cn2ccccc2n1 (stereo not drawn) [listing 1 of 2 here]	1 to 5	–
O=C(N1CCc2[nH]cnc2C1c1cn2ccccc2n1)C(F)(F)C1(O)CCC1 (stereo not drawn)	1 to 5	–
O=C(CCc1nc2ccccc2o1)N1CCc2[nH]cnc2C1c1cn2ccccc2n1 (stereo not drawn)	1 to 5	–
O=C(CCc1nnc(C(F)F)o1)N1CCc2[nH]cnc2C1c1cn2ccccc2n1 (stereo not drawn)	> 5	–
O=C(c1nnc(N2CCOCC2)o1)N1CCc2[nH]cnc2C1c1cn2ccccc2n1 (stereo not drawn)	> 5	–
O=C(c1ocnc1C(F)F)N1CCc2nc[nH]c2C1c1cn2ccccc2n1 (stereo not drawn)	1 to 5	–
COCc1ncc(C(=O)N2CCc3[nH]cnc3C2c2cn3ccccc3n2)o1 (stereo not drawn)	> 5	–
O=C(c1cnc(C(F)(F)F)o1)N1CCc2[nH]cnc2C1c1cn2ccccc2n1 (stereo not drawn)	1 to 5	–
N#Cc1ncoc1C(=O)N1CCc2[nH]cnc2C1c1cn2ccccc2n1 (stereo not drawn) [listing 1 of 2 here]	1 to 5	–
O=C(c1cnc(C(F)(F)F)s1)N1CCc2[nH]cnc2C1c1cn2ccccc2n1 (stereo not drawn) [listing 1 of 2 here]	1 to 5	–
O=C(C1CC1(F)F)N1CCc2[nH]cnc2C1c1cn2ccccc2n1 (stereo not drawn) [listing 1 of 3 here]	1 to 5	–

SMILES	AC50 (read-out: AC50) [µM]	AC50
O=C(C1CC1(F)F)N1CCc2[nH]cnc2C1c1cn2ccccc2n1 (stereo not drawn) [listing 2 of 3 here]	1 to 5	–
O=C(C1CC1)N1CCc2nc[nH]c2C1c1cn2ccccc2n1 (stereo not drawn)	1 to 5	–
O=C(CCc1ccccc1)N1CCc2[nH]cnc2C1c1cn2ccccc2n1 (stereo not drawn) [listing 2 of 2 here]	> 5	–
Cc1nc(-c2ccccn2)oc1C(=O)N1CCc2[nH]cnc2C1c1cn2ccccc2n1 (stereo not drawn) [listing 2 of 2 here]	> 5	–
O=C(c1cnc(C2CC2)s1)N1CCc2[nH]cnc2C1c1cn2ccccc2n1 (stereo not drawn) [listing 2 of 2 here]	> 5	–
N#Cc1ncoc1C(=O)N1CCc2[nH]cnc2C1c1cn2ccccc2n1 (stereo not drawn) [listing 2 of 2 here]	> 5	–
O=C(c1cnc(C(F)(F)F)s1)N1CCc2[nH]cnc2C1c1cn2ccccc2n1 (stereo not drawn) [listing 2 of 2 here]	> 5	–
O=C(C1CC1(F)F)N1CCc2[nH]cnc2C1c1cn2ccccc2n1 (stereo not drawn) [listing 3 of 3 here]	> 5	–
Cc1ncoc1C(=O)N1CC2(CC2)c2[nH]cnc2C1c1cn2ccccc2n1 (stereo not drawn)	1 to 5	–
CC1CN(C(=O)c2nnc(N3CC(F)C3)o2)C(c2cc3ccccc3cn2)c2nc[nH]c21 (stereo not drawn)	> 5	–
CC1CN(C(=O)c2ocnc2C(F)(F)F)C(c2cc3ccccc3cn2)c2nc[nH]c21 (stereo not drawn)	1 to 5	–
CC1CN(C(=O)c2nnc(N3CCN(C)CC3)o2)C(c2cc3ccccc3cn2)c2nc[nH]c21 (stereo not drawn)	1 to 5	–
CC1CN(c2nnc(-c3ccccn3)o2)C(c2cc3ccccc3cn2)c2nc[nH]c21 (stereo not drawn)	1 to 5	–
CC1CN(C(=O)c2oc(-c3ccccn3)nc2C(F)(F)F)C(c2cc3ccccc3cn2)c2nc[nH]c21 (stereo not drawn)	0.5 to 1	–
CC(C)(O)c1ccc2c(C(=O)N3CCc4[nH]cnc4[C@H]3c3cc4ccccc4cn3)cnn2c1 (single isomer, unassigned)	1 to 5	–
CC(C)(O)c1ncc(C(=O)N2CCc3[nH]cnc3C2c2cc3ccccc3cn2)o1 (single isomer, unassigned)	1 to 5	–
Cc1nc(C(C)(C)O)oc1C(=O)N1CCc2[nH]cnc2[C@H]1c1cc2ccccc2cn1 (single isomer, unassigned)	1 to 5	–
Cc1nc(C(F)(F)F)c(C(=O)N2CCc3nc[nH]c3[C@@H]2c2cn3ccccc3n2)o1 (single isomer, unassigned)	–	E, E
FC(F)c1nnc(N2CCc3[nH]cnc3[C@H]2c2ccc3ccccc3n2)o1 (single isomer, unassigned)	> 5	–
Cc1nc(C(F)(F)F)c(C(=O)N2CCc3nc[nH]c3[C@H]2c2cn3ccccc3n2)o1 (single isomer, unassigned)	–	E, E
Cn1ccc(-c2nc(C(F)F)c(C(=O)N3CCc4[nH]cnc4[C@H]3c3ncc4ccccc4n3)o2)n1 (single isomer, unassigned)	–	E, E
Cc1ncoc1C(=O)N1C[C@@H](C)c2[nH]cnc2[C@@H]1c1cc2ccccc2cn1 (single isomer, unassigned)	–	E, E
C[C@H]1CN(C(=O)c2ocnc2C(F)(F)F)[C@@H](c2cc3ccccc3cn2)c2nc[nH]c21 (single isomer, unassigned)	–	E, E
